In PMC4552634, “A New Set of Chemical Starting Points with Plasmodium falciparum Transmission-Blocking Potential for Antimalarial Drug Discovery” (PLoS ONE, 2015):
Like-named read-outs stand apart in the source and are kept apart here.

Tested on: P. falciparum stage V gametocytes
Test: microbe, parasite or virus in culture
Set-up: BacTiter-Glo ATP luminescence viability of purified stage V gametocytes in 384-well plates, per cent inhibition versus DMSO
[1] = Plasmodium falciparum, 48 h, read-out: % Inhibition
[2] = Plasmodium falciparum, 48 h; read-out: % Inhibition

Row | SMILES | inhibition at 5 µM [1] [%] | inhibition at 5 µM [2] [%]
1 | CCOc1ccc2c(NN=Cc3ccccc3OC)cc(C)nc2c1 [TCMDC-142203] | 87.4 | 
2 | COc1cccc2c(Nc3ccccc3C)nc(Nc3ccccc3C)nc12 [TCMDC-142321] | 28.2 | 
3 | CCCC(C(=O)OCCNC)(c1ccccc1)c1ccccc1 [TCMDC-142275] | 48.4 | 
4 | COc1ccc2c(NN=Cc3cccc(F)c3)ccnc2c1 [TCMDC-142134] | 99 | 
5 | CCCCCC(C)C(C)c1cc(O)c2c(c1)OC(C)(C)c1cnccc1-2 (centres unmarked) [TCMDC-142188] |  | -17.5
6 | CCCCCCN(CCCCCC)CC(O)c1c(OC)ccc2ccccc12 (centres unmarked) [TCMDC-142248] | -34.9 | 
7 | COc1ccc2c(N/N=C/c3ccccc3[N+](=O)[O-])ccnc2c1 [TCMDC-142140] | 101 | 
8 | COc1ccc2nccc(NN=Cc3cccc(F)c3)c2c1 [TCMDC-142131] | 82.2 | 
9 | FC(F)(F)c1ccc2nccc(NN=Cc3ccccc3Cl)c2c1 [TCMDC-142147] | -24.8 | 
10 | CN=C(NO)NCCN(C)C [TCMDC-142305] | -1.82 | 
11 | CCOc1ccc2c(NN=Cc3ccc(OC)c(OC)c3)cc(C)nc2c1 [TCMDC-142206] | 95.7 | 
12 | COc1cccc2c(N/N=C/c3ccccc3[N+](=O)[O-])ccnc12 [TCMDC-142141] | 90.8 | 
13 | CCN(CC)Cc1cc(NC(=O)c2ccccc2O)ccc1Oc1ccc(Cl)cc1 [TCMDC-142283] | -6.19 | 
14 | OC(c1cc(C(F)(F)F)nc2c(F)cccc12)C1CCCCN1 (centres unmarked) [TCMDC-142228] | 37.8 | 
15 | Cc1ccc(Cc2cnc(NCCSCc3ccc(CN(C)C)s3)[nH]c2=O)cn1 [TCMDC-142304] | -3.6 | 
16 | COc1cccc2c(N/N=C/c3cccc([N+](=O)[O-])c3)ccnc12 [TCMDC-142142] | -28.6 | 
17 | Nc1c2c(nc3ccc(Oc4ccc(Br)cc4Br)cc13)CCCC2 [TCMDC-142286] | 91.6 | 
18 | COc1ccccc1-c1nc2nc(N)nc(N)c2nc1-c1ccccc1OC [TCMDC-142250] | 16.7 | 
19 | COc1ccc(C=NNc2cc(C)nc3ccccc23)c2ccccc12 [TCMDC-142185] | 93.9 | 
20 | CCCCCCc1cc(Oc2c(I)cc(C[C@H](N)C(=O)O)cc2I)ccc1O [TCMDC-142342] | 5.11 | 
21 | COc1cccc2c(NN=Cc3cccc(F)c3)ccnc12 [TCMDC-142107] | 74.3 | 
22 | Oc1ccc(Cc2cc(Oc3c(I)cc(CCc4ncc[nH]4)cc3I)ccc2O)cc1 [TCMDC-142306] | 59.2 | 

Row | SMILES | inhibition at 5 µM [1] [%] | inhibition at 5 µM [2] [%]
23 | Cc1cc(NN=Cc2cccc(F)c2)c2ccc(F)cc2n1 [TCMDC-142174] | -36.6 | 
24 | C=CCN1Cc2c(O)cccc2C(c2ccc(O)c(O)c2)C1 (centres unmarked) [TCMDC-142270] | -127 | 
25 | CCCCOP(=O)(OCCCC)C(=Cc1ccc(O)c2ccccc12)P(=O)(OCCCC)OCCCC [TCMDC-142336] | -25.7 | 
26 | Cc1cc(NN=CC=Cc2ccccc2)c2cc(F)ccc2n1 [TCMDC-142177] | -42.3 | 
27 | Fc1ccc(C=NNc2ccnc3ccc(C(F)(F)F)cc23)cc1 [TCMDC-142152] | -15.6 | 
28 | CC(C)OC(=O)c1ccccc1S(N)(=O)=O [TCMDC-142262] | -12.6 | 
29 | Cc1ccccc1Nc1nc(NCCCO)c2ccccc2n1 [TCMDC-142327] | 41.9 | 
30 | Cc1cc(NN=CC=Cc2ccccc2)c2ccc(F)cc2n1 [TCMDC-142176] | -23.9 | 
31 | FC(F)(F)c1ccc2nccc(NN=CC=Cc3ccccc3)c2c1 [TCMDC-142153] | -25.7 | 
32 | Cc1cc(NN=Cc2ccc(Cl)cc2)c2cc(C(F)(F)F)ccc2n1 [TCMDC-142155] | -3.11 | 
33 | CN=C(Nc1c(Cl)cccc1Cl)N(C)C [TCMDC-142121] | 5.95 | 
34 | Cc1ccc2c(c1[N+](=O)[O-])N=NCC2Oc1ccccc1 (centres unmarked) [TCMDC-142213] | 38.1 | 
35 | COc1ccc(C=NNc2cc(C)nc3ccccc23)c(OC)c1 [TCMDC-142196] | 98.4 | 
36 | Nc1c2c(nc3ccccc13)C(=Cc1ccc(O)cc1)CCC2 [TCMDC-142288] | -4.93 | 
37 | O=[N+]([O-])c1ccccc1C=NNc1c2c(nc3ccccc13)CCCC2 [TCMDC-142202] | -53.6 | 
38 | CCOc1ccc2c(NN=Cc3cccc(Cl)c3)cc(C)nc2c1 [TCMDC-142192] | -2.16 | 
39 | c1cc(CN2CCCCC2)cc(OCCCNc2ccnc3ccccc23)c1 [TCMDC-142315] | 42 | 
40 | CC(C)(C)c1cc([N+](=O)[O-])cc(C(=O)Nc2ccccc2C(F)(F)F)c1O [TCMDC-142293] | -4.47 | 
41 | CCOC(=O)CCCN1C(=O)CN=C(c2ccccc2)c2cc(Cl)ccc21 [TCMDC-142274] |  | -8.73
42 | COc1cccc2c(NN=Cc3cccc(Cl)c3)cc(C)nc12 [TCMDC-142117] | 27.1 | 
43 | Cc1cc(F)ccc1Nc1nc(N(C)c2ccccc2)c2cc(OCCCN(C)C)ccc2n1 [TCMDC-142332] | 57.7 | 
44 | CCNc1c2ccc(Cl)cc2nc2ccc(OC)cc12 [TCMDC-142190] | -21.5 | 
